According to patent US20130005747A1, “METHOD FOR SELECTING A CANCER THERAPY” (Cyclacel Limited, priority 2010, published 2013):

Legend:
Assay in all cases: Fractional growth, 72 h seliciclib
Assay type in all cases: cell-based, human
[1] = test system: BPH-1; settings: BPH-1 (Prostate), 15 μM seliciclib
Source text: (§1) A total of 270 human cancer cell lines from diverse cancer histopathologic types were investigated.

[2] = test system: PA-TU-8988S; settings: PA-TU-8988S (Pancreas), 15 μM seliciclib
Source text: as §1

[3] = test system: TYK-nu; settings: TYK-nu (Ovary), 15 μM seliciclib
Source text: as §1

[4] = test system: NCI-H727; settings: NCI-H727 (Lung), 15 μM seliciclib
Source text: as §1

[5] = test system: Panc 03.27; settings: Panc 03.27 (Pancreas), 15 μM seliciclib
Source text: as §1

[6] = test system: RT-112; settings: RT-112 (Bladder), 15 μM seliciclib
Source text: as §1

[7] = test system: HT 1080; settings: HT 1080 (Miscellaneous), 15 μM seliciclib
Source text: as §1

[8] = test system: NCI-H1581; settings: NCI-H1581 (Lung: NSCLC), 15 μM seliciclib
Source text: as §1

[9] = test system: HARA; settings: HARA (Lung: NSCLC), 15 μM seliciclib
Source text: as §1

[10] = test system: PC-3; settings: PC-3 (Prostate), 15 μM seliciclib
Source text: as §1

[11] = test system: UM-UC-3; settings: UM-UC-3 (Bladder), 15 μM seliciclib
Source text: as §1

[12] = test system: M-14; settings: M-14 (Skin), 15 μM seliciclib
Source text: as §1

[13] = test system: SNU-398; settings: SNU-398 (Liver), 15 μM seliciclib
Source text: as §1

[14] = test system: EBC-1; settings: EBC-1 (Lung: NSCLC), 15 μM seliciclib
Source text: as §1

[15] = test system: SCaBER; settings: SCaBER (Bladder), 15 μM seliciclib
Source text: as §1

[16] = test system: LU99A; settings: LU99A (Lung: NSCLC), 15 μM seliciclib
Source text: as §1

[17] = test system: MG-63; settings: MG-63 (Bone), 15 μM seliciclib
Source text: as §1

[18] = test system: KP-1N; settings: KP-1N (Pancreas), 15 μM seliciclib
Source text: as §1

[19] = test system: HGC-27; settings: HGC-27 (Stomach), 15 μM seliciclib
Source text: as §1

[20] = test system: BT-20; settings: BT-20 (Breast), 15 μM seliciclib
Source text: as §1

[21] = test system: RPMI 2650; settings: RPMI 2650 (Head & Neck), 15 μM seliciclib
Source text: as §1

[22] = test system: CAL-33; settings: CAL-33 (Head & Neck), 15 μM seliciclib
Source text: as §1

[23] = test system: PC-14; settings: PC-14 (Lung: NSCLC), 15 μM seliciclib
Source text: as §1

[24] = test system: H2722; settings: H2722 (Lung), 15 μM seliciclib
Source text: as §1

[25] = test system: CAL-62; settings: CAL-62 (Thyroid), 15 μM seliciclib
Source text: as §1

[26] = test system: IGROV-1; settings: IGROV-1 (Ovary), 15 μM seliciclib
Source text: as §1

[27] = test system: HCT-15; settings: HCT-15 (Intestine), 15 μM seliciclib
Source text: as §1

[28] = test system: TOV-112D; settings: TOV-112D (Ovary), 15 μM seliciclib
Source text: as §1

[29] = test system: MKN1; settings: MKN1 (Stomach), 15 μM seliciclib
Source text: as §1

[30] = test system: PANC-1; settings: PANC-1 (Pancreas), 15 μM seliciclib
Source text: as §1

[31] = test system: JHH-6; settings: JHH-6 (Liver), 15 μM seliciclib
Source text: as §1

[32] = test system: RT112/84; settings: RT112/84 (Bladder), 15 μM seliciclib
Source text: as §1

[33] = test system: SN-12C; settings: SN-12C (Kidney), 15 μM seliciclib
Source text: as §1

[34] = test system: NCI-H1792; settings: NCI-H1792 (Lung: NSCLC), 15 μM seliciclib
Source text: as §1

[35] = test system: RT4; settings: RT4 (Bladder), 15 μM seliciclib
Source text: as §1

[36] = test system: NCI-H1651; settings: NCI-H1651 (Lung: NSCLC), 15 μM seliciclib
Source text: as §1

[37] = test system: CHSA8926; settings: CHSA8926 (Bone), 15 μM seliciclib
Source text: as §1

CC[C@H](CO)Nc1nc(NCc2ccccc2)c2ncn(C(C)C)c2n1 [seliciclib, roscovitine]
Fractional Growth [1]: 0.6039 | Fractional Growth [2]: 0.5791 | Fractional Growth [3]: 0.3005 | Fractional Growth [4]: 0.5866 | Fractional Growth [5]: 0.5632 | Fractional Growth [6]: 0.243 | Fractional Growth [7]: 0.2044 | Fractional Growth [8]: 0.7659 | Fractional Growth [9]: 0.6182 | Fractional Growth [10]: 0.4021 | Fractional Growth [11]: 0.3538 | Fractional Growth [12]: 0.3765 | Fractional Growth [13]: 0.0473 | Fractional Growth [14]: 0.3971 | Fractional Growth [15]: 0.5642 | Fractional Growth [16]: 0.0948 | Fractional Growth [17]: 0.5484 | Fractional Growth [18]: 0.6045 | Fractional Growth [19]: 0.2806 | Fractional Growth [20]: 0.7016 | Fractional Growth [21]: 0.1937 | Fractional Growth [22]: 0.6834 | Fractional Growth [23]: 0.5776 | Fractional Growth [24]: 0.8974 | Fractional Growth [25]: 0.3139 | Fractional Growth [26]: 0.4776 | Fractional Growth [27]: 0.5363 | Fractional Growth [28]: 0.3156 | Fractional Growth [29]: 0.3594 | Fractional Growth [30]: 0.5761 | Fractional Growth [31]: 0.3234 | Fractional Growth [32]: 0.318 | Fractional Growth [33]: 0.6383 | Fractional Growth [34]: 0.4649 | Fractional Growth [35]: 0.9342 | Fractional Growth [36]: 0.6289 | Fractional Growth [37]: 0.674
